Laboratory results as given in patent US20230233690A1, “ANDROGEN RECEPTOR PROTEIN DEGRADERS” (THE REGENTS OF THE UNIVERSITY OF MICHIGAN, priority 2020, published 2023).

Target: T1, AR protein (Homo sapiens, UniProt P10275)
T1 construct: endogenous in cells; host or cells: VCaP
T1 sequence (P10275 1-920): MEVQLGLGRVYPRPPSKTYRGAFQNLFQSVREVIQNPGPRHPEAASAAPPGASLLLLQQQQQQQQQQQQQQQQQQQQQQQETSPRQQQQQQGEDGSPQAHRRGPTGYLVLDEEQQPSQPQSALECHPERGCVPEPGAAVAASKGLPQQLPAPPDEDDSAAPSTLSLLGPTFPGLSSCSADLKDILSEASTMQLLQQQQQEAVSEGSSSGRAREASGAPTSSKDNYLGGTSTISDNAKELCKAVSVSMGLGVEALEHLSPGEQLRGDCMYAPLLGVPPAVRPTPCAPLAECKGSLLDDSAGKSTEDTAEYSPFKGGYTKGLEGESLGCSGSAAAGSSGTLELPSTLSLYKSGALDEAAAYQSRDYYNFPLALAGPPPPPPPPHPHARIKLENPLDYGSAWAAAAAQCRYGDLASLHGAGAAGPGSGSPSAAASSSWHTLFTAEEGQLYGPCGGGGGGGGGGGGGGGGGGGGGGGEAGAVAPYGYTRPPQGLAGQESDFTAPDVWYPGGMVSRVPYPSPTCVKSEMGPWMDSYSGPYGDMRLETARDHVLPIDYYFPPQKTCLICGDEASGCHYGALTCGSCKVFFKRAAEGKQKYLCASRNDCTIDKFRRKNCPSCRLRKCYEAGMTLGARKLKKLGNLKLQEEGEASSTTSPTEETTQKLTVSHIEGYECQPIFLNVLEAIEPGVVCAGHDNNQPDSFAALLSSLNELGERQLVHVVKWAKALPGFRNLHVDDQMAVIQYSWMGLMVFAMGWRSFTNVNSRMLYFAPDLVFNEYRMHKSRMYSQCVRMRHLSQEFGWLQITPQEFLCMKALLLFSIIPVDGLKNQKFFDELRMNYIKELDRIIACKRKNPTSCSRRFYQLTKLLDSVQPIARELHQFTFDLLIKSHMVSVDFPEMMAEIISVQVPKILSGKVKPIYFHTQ
Assay: Western blotting of AR protein degradation in VCaP cells
Format: cell-based
Conditions: for AR protein degradation VCap 100 nM / AR protein degradation VCap 10 nM: 24 hr treatment
Description: The treated cells were lysed with RIPA buffer. […] GAPDH was used as a loading control.
Bands were quantified with ImageJ software. The relative numbers of each band obtained from normalization with its corresponding GAPDH level were compared with Prism 8 software. The DC50 values were produced from Prism 8, and the DC90 values were calculated with an equation=Bottom+(Top−Bottom)/(1+10^((Log EC50−X)*HillSlope) based on DC50 and Hillslope values.

| % AR protein degradation in VCaP Cells (0.001 μM) | % AR protein degradation in VCaP Cells (0.01 μM) | % AR protein degradation in VCaP Cells (0.1 μM) | % AR protein degradation in VCaP Cells (1 μM) | SMILES | AR protein degradation VCap 100 nM | AR protein degradation VCap 10 nM |
| --- | --- | --- | --- | --- | --- | --- |
| 43% | 70% | 55% | 38% | N#Cc1ccc(O[C@H]2CC[C@H](NC(=O)c3ccc(NCCCCNc4ccc5c(c4)C(=O)N(C4CCC(=O)NC4=O)C5=O)cc3)CC2)cc1Cl (stereo partly shown) [compound 210, N-((1r,4r)-4-(3-chloro-4-cyanophenoxy)cyclohexyl)-4-((4-((2-(2,6-dioxopiperidin-3-yl)-1,3-dioxoisoindolin-5-yl)amino)butyl)amino)benzamide] | – | – |
| 38% | 79% | 85% | 86% | N#Cc1ccc(O[C@H]2CC[C@H](NC(=O)c3ccc(N4CCN(CC5CN(c6ccc7c(c6)C(=O)N(C6CCC(=O)NC6=O)C7=O)C5)CC4)cc3)CC2)cc1Cl (stereo partly shown) [compound 224, N-((1r,4r)-4-(3-chloro-4-cyanophenoxy)cyclohexyl)-4-(4-((1-(2-(2,6-dioxopiperidin-3-yl)-1,3-dioxoisoindolin-5-yl)azetidin-3-yl)methyl)piperazin-1-yl)benzamide] | – | – |
| 12% | 21% | 51% | 47% | N#Cc1ccc(O[C@H]2CCC[C@H](NC(=O)c3ccc(N4CCC(N5CCN(c6ccc7c(c6)C(=O)N(C6CCC(=O)NC6=O)C7=O)CC5)CC4)cc3)CCC2)cc1Cl (stereo partly shown) [compound 228, N-((1r,5r)-5-(3-chloro-4-cyanophenoxy)cyclooctyl)-4-(4-(4-(2-(2,6-dioxopiperidin-3-yl)-1,3-dioxoisoindolin-5-yl)piperazin-1-yl)piperidin-1-yl)benzamide] | – | – |
| 6% | 35% | 58% | 53% | N#Cc1ccc(O[C@H]2CC[C@H](NC(=O)c3ccc(NCCCCCCCCCNc4ccc5c(c4)C(=O)N(C4CCC(=O)NC4=O)C5=O)cc3)CC2)cc1Cl (stereo partly shown) [compound 215, N-((1r,4r)-4-(3-chloro-4-cyanophenoxy)cyclohexyl)-4-((9-((2-(2,6-dioxopiperidin-3-yl)-1,3-dioxoisoindolin-5-yl)amino)nonyl)amino)benzamide] | – | – |
| −11% | −9% | 1% | 22% | N#Cc1ccc(O[C@H]2CC[C@H](NC(=O)c3ccc(NCCCCCCCCCCNc4ccc5c(c4)C(=O)N(C4CCC(=O)NC4=O)C5=O)cc3)CC2)cc1Cl (stereo partly shown) [compound 216, N-((1r,4r)-4-(3-chloro-4-cyanophenoxy)cyclohexyl)-4-((10-((2-(2,6-dioxopiperidin-3-yl)-1,3-dioxoisoindolin-5-yl)amino)decyl)amino)benzamide] | – | – |
| 6% | 32% | 39% | 21% | N#Cc1ccc(O[C@H]2CC[C@H](NC(=O)c3ccc(N4CCN(CCNc5ccc6c(c5)C(=O)N(C5CCC(=O)NC5=O)C6=O)CC4)cc3)CC2)cc1Cl (stereo partly shown) [compound 218, N-((1r,4r)-4-(3-chloro-4-cyanophenoxy)cyclohexyl)-4-(4-(2-((2-(2,6-dioxopiperidin-3-yl)-1,3-dioxoisoindolin-5-yl)amino)ethyl)piperazin-1-yl)benzamide] | – | – |
| 18% | 69% | 80% | 59% | N#Cc1ccc(O[C@H]2CC[C@H](NC(=O)c3ccc(N4CCN(CCCNc5ccc6c(c5)C(=O)N(C5CCC(=O)NC5=O)C6=O)CC4)cc3)CC2)cc1Cl (stereo partly shown) [compound 219, N-((1r,4r)-4-(3-chloro-4-cyanophenoxy)cyclohexyl)-4-(4-(3-((2-(2,6-dioxopiperidin-3-yl)-1,3-dioxoisoindolin-5-yl)amino)propyl)piperazin-1-yl)benzamide] | – | – |

The next lines start with the molecule.

| SMILES | % AR protein degradation in VCaP Cells (0.001 μM) | % AR protein degradation in VCaP Cells (0.01 μM) | % AR protein degradation in VCaP Cells (0.1 μM) | % AR protein degradation in VCaP Cells (1 μM) | AR protein degradation VCap 100 nM | AR protein degradation VCap 10 nM |
| --- | --- | --- | --- | --- | --- | --- |
| CC(O)(CS(=O)(=O)c1ccc(N2CCN(C3CCN(c4ccc5c(c4)C(=O)N(C4CCC(=O)NC4=O)C5=O)CC3)CC2)cc1)C(=O)Nc1ccc(C#N)c(C(F)(F)F)c1 (stereo not shown) [compound 241, N-(4-cyano-3-(trifluoromethyl)phenyl)-3-((4-(4-(1-(2-(2,6-dioxopiperidin-3-yl)-1,3-dioxoisoindolin-5-yl)piperidin-4-yl)piperazin-1-yl)phenyl)sulfonyl)-2-hydroxy-2-methylpropanamide] | 7% | 13% | −2% | 27% | – | – |
| N#Cc1ccc(O[C@H]2CC[C@H](NC(=O)c3ccc4c(c3)CCN(CC3CCN(c5ccc6c(c5)C(=O)N(C5CCC(=O)NC5=O)C6=O)CC3)C4)CC2)cc1Cl (stereo partly shown) [compound 9] | – | – | – | – | B (>50% degradation but <90% (24 hr treatment)) | – |
| N#Cc1ccc(O[C@H]2CC[C@H](NC(=O)c3ccc(N4CCC5(CC4)CCN(C4CCN(c6ccc7c(c6)C(=O)N(C6CCC(=O)NC6=O)C7=O)CC4)CC5)cc3)CC2)cc1Cl (stereo partly shown) [compound 7] | – | – | – | – | C (>10% degradation but <50% (24 hr treatment)) | B (>50% degradation but <90% (24 hr treatment)) |
| N#Cc1ccc(O[C@H]2CC[C@H](NC(=O)c3ccc(NCCCCCCCCCCCNc4ccc5c(c4)C(=O)N(C4CCC(=O)NC4=O)C5=O)cc3)CC2)cc1Cl (stereo partly shown) [compound 217, N-((1r,4r)-4-(3-chloro-4-cyanophenoxy)cyclohexyl)-4-((11-((2-(2,6-dioxopiperidin-3-yl)-1,3-dioxoisoindolin-5-yl)amino)undecyl)amino)benzamide] | 7% | 17% | 39% | 35% | – | – |
| C[C@H]1C[C@H](NC(=O)c2ccc(N3CCN(CC4CCN(c5ccc6c(c5)C(=O)N(C5CCC(=O)NC5=O)C6=O)CC4)CC3)cc2)CC[C@H]1Oc1ccc(C#N)c(Cl)c1 (stereo partly shown) [compound 24] | – | – | – | – | A (>90% degradation (24 hr treatment)) | A (>90% degradation (24 hr treatment)) |
| N#Cc1ccc(O[C@H]2CC[C@H](NC(=O)c3ccc4c(c3)CN(CC3CCN(c5ccc6c(c5)C(=O)N(C5CCC(=O)NC5=O)C6=O)CC3)C4)CC2)cc1Cl (stereo partly shown) [compound 8] | – | – | – | – | A (>90% degradation (24 hr treatment)) | – |
| CN(c1ccc(C(=O)N2CCN(C3CCN(c4ccc5c(c4)C(=O)N(C4CCC(=O)NC4=O)C5=O)CC3)CC2)cc1)[C@H]1CC[C@H](Oc2ccc(C#N)c(Cl)c2)CC1 (stereo partly shown) [compound 14] | – | – | – | – | C (>10% degradation but <50% (24 hr treatment)) | – |
| C[C@H]1C[C@@H](NC(=O)c2ccc(N3CCN(C4CCN(c5ccc6c(c5)C(=O)N(C5CCC(=O)NC5=O)C6=O)CC4)CC3)cc2)CC[C@@H]1Oc1ccc(C#N)c(Cl)c1 (stereo partly shown) [compound 25] | – | – | – | – | A (>90% degradation (24 hr treatment)) | A (>90% degradation (24 hr treatment)) |
| C[C@H]1C[C@@H](NC(=O)c2ccc(N3CCN(C4CN(c5ccc6c(c5)C(=O)N(C5CCC(=O)NC5=O)C6=O)C4)CC3)cc2)CC[C@@H]1Oc1ccc(C#N)c(Cl)c1 (stereo partly shown) [compound 26] | – | – | – | – | A (>90% degradation (24 hr treatment)) | A (>90% degradation (24 hr treatment)) |
| N#Cc1ccc(N[C@H]2CC[C@H](NC(=O)c3ccc(N4CCN(CC5CCN(c6ccc7c(c6)C(=O)N(C6CCC(=O)NC6=O)C7=O)CC5)CC4)cc3)CC2)cc1Cl (stereo partly shown) [compound 27] | – | – | – | – | A (>90% degradation (24 hr treatment)) | A (>90% degradation (24 hr treatment)) |
| N#Cc1ccc(N[C@H]2CC[C@H](NC(=O)c3ccc(N4CCN(C5CN(c6ccc7c(c6)C(=O)N(C6CCC(=O)NC6=O)C7=O)C5)CC4)cc3)CC2)cc1Cl (stereo partly shown) [Cpd. No. 28, N-((1r,4r)-4-((3-chloro-4-cyanophenyl)amino)cyclohexyl)-4-(4-(1-(2-(2,6-dioxopiperidin-3-yl)-1,3-dioxoisoindolin-5-yl)azetidin-3-yl)piperazin-1-yl)benzamide] | – | – | – | – | A (>90% degradation (24 hr treatment)) | A (>90% degradation (24 hr treatment)) |
| CN(c1ccc(C(=O)N2CCN(CC3CCN(c4ccc5c(c4)C(=O)N(C4CCC(=O)NC4=O)C5=O)CC3)CC2)cc1)[C@H]1CC[C@H](Oc2ccc(C#N)c(Cl)c2)CC1 (stereo partly shown) [compound 15] | – | – | – | – | B (>50% degradation but <90% (24 hr treatment)) | – |
